{"source": "ChEMBL document CHEMBL5465560", "about": "“Selectivity Literature for EUbOPEN Chemogenomic Library” (2024)", "key": {"[1]": {"assay": "Selectivity interaction (KinomeScan (DiscoverX)) EUB0000045b CDPK1", "settings": "at 10 µM"}, "[2]": {"biological_target": "Tyrosine-protein kinase Lck (Homo sapiens, UniProt P06239)", "sequence (P06239 2-509 limits assumed)": "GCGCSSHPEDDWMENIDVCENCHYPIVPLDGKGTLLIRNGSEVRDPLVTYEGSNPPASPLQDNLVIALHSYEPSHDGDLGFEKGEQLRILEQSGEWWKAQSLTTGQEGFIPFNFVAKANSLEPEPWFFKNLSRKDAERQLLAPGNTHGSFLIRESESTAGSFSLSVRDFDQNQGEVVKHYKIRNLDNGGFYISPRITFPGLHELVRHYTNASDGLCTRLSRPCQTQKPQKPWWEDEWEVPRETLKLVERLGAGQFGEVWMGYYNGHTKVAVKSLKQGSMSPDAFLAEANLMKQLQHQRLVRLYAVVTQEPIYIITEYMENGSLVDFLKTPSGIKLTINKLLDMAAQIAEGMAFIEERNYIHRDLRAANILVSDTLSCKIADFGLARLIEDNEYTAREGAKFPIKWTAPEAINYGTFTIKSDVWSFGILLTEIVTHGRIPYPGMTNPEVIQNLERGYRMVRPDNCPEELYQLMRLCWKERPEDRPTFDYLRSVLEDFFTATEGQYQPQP", "assay": "Selectivity interaction (KinomeScan (DiscoverX)) EUB0001079a LCK", "settings": "at 1 µM"}, "[3]": {"biological_target": "T1, Serine/threonine-protein kinase D2 (Homo sapiens) (UniProt Q9BZL6)", "T1 sequence (whole entry)": "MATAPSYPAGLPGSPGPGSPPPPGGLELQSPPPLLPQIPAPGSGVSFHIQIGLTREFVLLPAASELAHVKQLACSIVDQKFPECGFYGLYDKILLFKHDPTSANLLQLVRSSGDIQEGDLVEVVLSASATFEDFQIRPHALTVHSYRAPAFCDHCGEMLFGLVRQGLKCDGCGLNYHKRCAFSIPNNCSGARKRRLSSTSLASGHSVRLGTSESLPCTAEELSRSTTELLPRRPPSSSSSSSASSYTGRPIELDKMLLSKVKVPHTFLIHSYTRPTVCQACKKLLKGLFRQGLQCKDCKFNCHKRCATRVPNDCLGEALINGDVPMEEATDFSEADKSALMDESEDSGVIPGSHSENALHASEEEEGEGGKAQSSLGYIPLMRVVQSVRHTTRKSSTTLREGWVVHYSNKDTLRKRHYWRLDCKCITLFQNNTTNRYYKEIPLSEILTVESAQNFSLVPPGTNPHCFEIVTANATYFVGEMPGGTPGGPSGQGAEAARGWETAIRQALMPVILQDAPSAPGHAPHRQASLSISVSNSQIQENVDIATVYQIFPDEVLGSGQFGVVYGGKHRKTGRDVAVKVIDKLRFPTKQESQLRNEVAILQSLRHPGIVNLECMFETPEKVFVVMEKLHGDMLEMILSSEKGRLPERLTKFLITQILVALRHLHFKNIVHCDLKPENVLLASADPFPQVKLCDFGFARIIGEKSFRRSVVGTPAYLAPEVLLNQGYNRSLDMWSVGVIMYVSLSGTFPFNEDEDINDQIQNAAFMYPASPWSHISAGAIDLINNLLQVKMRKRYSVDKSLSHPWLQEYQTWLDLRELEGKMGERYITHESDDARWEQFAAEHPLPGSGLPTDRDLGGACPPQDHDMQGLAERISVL", "assay": "Selectivity interaction (KinomeScan (DiscoverX)) EUB0000666a PRKD2", "settings": "at 10 µM"}, "Vasopressin V2 receptor": {"biological_target": "Vasopressin V2 receptor (Homo sapiens, UniProt P30518)", "sequence (P30518 whole entry)": "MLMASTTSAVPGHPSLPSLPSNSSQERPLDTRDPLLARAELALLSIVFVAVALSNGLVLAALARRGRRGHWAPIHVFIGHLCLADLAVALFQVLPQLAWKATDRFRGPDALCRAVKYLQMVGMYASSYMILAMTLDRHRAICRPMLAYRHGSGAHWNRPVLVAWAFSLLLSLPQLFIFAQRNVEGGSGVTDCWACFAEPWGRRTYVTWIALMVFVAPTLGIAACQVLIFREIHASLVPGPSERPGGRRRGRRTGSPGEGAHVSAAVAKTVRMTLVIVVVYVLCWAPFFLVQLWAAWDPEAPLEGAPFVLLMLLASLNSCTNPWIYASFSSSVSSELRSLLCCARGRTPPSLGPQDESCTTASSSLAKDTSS", "assay": "Selectivity interaction (Eurofins CEREP Diversity Profile (receptors and ion channels)) EUB0000279b AVPR2", "settings": "at 10 µM"}, "[4]": {"biological_target": "T2, Serine/threonine-protein kinase 17A (Homo sapiens) (UniProt Q9UEE5)", "T2 sequence (whole entry)": "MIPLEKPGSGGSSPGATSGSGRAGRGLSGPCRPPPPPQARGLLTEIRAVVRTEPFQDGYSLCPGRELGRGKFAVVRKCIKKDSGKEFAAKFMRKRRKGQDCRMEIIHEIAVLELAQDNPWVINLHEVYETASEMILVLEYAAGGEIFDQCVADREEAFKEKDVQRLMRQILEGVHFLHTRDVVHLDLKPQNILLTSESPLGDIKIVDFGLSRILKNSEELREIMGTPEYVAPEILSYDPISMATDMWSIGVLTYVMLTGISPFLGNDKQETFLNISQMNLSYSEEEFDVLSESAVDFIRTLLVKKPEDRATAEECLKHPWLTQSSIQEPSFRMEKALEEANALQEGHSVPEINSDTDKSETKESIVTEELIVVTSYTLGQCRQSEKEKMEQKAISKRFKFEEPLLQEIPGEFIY", "assay": "Selectivity interaction (Upstate Kinase Profiler service (Millipore)) EUB0000056c STK17A", "settings": "at 1 µM"}, "[5]": {"biological_target": "Serine/threonine-protein kinase MRCK beta (Homo sapiens) (UniProt Q9Y5S2)", "sequence (Q9Y5S2 whole entry)": "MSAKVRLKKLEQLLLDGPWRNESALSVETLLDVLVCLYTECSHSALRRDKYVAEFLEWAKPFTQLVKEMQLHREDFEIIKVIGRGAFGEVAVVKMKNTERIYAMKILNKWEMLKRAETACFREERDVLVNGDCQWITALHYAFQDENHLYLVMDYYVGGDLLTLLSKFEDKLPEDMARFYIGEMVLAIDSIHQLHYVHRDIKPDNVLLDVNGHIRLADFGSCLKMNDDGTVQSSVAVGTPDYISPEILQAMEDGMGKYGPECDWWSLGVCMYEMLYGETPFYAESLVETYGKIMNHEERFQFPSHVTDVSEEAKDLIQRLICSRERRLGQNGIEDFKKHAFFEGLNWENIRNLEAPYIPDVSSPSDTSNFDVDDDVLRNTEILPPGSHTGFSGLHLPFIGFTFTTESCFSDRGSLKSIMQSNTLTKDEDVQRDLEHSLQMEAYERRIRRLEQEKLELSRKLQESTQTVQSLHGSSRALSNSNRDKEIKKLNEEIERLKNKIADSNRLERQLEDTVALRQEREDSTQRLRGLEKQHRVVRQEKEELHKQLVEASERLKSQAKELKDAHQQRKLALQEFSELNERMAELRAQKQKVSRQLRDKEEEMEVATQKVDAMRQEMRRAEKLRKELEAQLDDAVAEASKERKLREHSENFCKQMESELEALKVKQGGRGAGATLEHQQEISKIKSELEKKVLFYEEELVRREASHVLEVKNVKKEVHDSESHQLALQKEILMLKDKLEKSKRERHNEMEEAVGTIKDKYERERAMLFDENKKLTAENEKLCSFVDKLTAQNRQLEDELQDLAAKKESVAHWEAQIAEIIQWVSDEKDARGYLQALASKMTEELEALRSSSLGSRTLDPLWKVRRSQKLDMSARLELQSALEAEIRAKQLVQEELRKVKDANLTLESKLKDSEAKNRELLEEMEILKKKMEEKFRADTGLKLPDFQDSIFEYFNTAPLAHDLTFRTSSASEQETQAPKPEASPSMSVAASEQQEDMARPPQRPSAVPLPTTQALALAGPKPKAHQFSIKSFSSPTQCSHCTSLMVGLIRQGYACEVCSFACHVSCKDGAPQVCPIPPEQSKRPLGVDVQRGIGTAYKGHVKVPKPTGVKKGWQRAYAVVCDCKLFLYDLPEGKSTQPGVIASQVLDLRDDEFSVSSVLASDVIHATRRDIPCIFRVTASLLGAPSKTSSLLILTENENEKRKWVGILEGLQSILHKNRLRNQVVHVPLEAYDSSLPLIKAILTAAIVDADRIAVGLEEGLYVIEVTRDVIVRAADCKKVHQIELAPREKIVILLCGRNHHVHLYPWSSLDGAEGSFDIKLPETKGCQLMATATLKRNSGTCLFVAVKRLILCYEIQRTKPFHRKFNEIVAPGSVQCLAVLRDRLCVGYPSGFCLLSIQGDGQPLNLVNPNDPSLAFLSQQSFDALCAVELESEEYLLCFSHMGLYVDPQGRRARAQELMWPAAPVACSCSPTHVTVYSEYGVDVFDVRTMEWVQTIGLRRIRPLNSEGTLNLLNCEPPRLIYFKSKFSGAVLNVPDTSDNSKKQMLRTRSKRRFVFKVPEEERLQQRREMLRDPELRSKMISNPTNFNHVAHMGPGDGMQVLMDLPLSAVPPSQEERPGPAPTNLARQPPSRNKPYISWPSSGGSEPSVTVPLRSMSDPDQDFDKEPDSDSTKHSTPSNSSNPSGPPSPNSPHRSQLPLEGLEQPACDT", "assay": "Selectivity interaction (KinomeScan (DiscoverX)) EUB0000607a CDC42BPB", "settings": "at 10 µM"}, "[6]": {"biological_target": "Tyrosine-protein kinase JAK2 (Homo sapiens, UniProt O60674)", "sequence (O60674 whole entry)": "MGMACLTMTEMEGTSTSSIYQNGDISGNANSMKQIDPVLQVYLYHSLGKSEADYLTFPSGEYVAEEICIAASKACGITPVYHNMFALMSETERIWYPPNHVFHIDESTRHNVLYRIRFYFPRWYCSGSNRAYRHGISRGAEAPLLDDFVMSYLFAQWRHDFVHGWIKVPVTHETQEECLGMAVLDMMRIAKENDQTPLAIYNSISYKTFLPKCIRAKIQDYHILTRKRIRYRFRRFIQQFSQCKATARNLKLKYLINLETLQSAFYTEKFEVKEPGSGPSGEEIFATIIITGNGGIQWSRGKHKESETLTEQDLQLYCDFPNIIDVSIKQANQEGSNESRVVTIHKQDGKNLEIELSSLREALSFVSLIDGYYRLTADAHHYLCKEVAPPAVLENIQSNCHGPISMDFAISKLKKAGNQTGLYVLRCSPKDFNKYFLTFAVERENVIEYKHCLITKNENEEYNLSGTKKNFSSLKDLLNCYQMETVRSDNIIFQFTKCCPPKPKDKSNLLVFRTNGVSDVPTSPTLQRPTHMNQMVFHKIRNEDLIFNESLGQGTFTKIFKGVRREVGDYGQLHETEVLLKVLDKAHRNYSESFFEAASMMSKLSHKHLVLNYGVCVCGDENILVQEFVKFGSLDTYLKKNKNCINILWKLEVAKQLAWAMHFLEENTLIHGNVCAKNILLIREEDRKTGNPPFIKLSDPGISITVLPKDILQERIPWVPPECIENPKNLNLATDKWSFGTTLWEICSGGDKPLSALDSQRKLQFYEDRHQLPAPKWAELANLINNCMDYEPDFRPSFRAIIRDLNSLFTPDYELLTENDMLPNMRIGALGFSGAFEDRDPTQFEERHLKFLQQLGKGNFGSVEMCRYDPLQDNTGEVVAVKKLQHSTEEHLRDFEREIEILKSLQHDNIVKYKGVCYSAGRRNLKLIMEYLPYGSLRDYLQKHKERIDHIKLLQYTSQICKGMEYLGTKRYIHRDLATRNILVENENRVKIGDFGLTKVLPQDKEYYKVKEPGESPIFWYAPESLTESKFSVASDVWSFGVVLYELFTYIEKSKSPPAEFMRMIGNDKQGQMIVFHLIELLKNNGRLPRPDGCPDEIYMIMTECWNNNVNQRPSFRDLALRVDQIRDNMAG", "assay": "Selectivity interaction (Kinase panel (Invitrogen)) EUB0000639a JAK2", "settings": "at 200 nM"}, "[7]": {"biological_target": "T3, Mitogen-activated protein kinase kinase kinase kinase 2 (Homo sapiens) (UniProt Q12851)", "T3 sequence (whole entry)": "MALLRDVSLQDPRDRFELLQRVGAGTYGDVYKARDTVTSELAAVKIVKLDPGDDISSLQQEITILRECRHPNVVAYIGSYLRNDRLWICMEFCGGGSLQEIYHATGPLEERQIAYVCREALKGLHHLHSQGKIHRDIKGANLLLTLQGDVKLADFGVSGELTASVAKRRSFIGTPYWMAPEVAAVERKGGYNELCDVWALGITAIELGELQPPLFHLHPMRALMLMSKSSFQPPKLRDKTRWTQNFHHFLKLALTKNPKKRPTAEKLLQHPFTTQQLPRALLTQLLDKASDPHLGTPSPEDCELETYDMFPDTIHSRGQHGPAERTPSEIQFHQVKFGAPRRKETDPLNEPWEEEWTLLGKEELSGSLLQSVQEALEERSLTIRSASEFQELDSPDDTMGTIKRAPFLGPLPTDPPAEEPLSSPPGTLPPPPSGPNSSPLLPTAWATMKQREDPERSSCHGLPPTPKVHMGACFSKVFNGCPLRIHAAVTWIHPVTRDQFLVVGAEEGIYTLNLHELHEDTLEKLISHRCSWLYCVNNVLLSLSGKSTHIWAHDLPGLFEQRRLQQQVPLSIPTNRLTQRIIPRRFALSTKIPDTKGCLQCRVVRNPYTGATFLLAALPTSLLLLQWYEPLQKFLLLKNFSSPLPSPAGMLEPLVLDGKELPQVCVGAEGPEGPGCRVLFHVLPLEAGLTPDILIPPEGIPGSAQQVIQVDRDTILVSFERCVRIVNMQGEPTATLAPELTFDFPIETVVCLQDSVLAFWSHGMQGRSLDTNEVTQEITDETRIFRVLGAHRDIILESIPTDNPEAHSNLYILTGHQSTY", "assay": "Selectivity interaction (KinomeScan (DiscoverX)) EUB0000092b MAP4K2", "settings": "at 10 µM"}}}
{"smiles": "C=CC(=O)Nc1cc(-n2c(=O)ccc3cnc4ccc(-c5ccc(NS(C)(=O)=O)cc5)cc4c32)ccc1C", "values": [{"measurement": "% of control", "setting": "[1]", "value": 100, "unit": "%"}]}
{"smiles": "Nc1cnc(N2CCc3cc(S(=O)(=O)Nc4c(F)cc(Cl)cc4F)cc(N4CCCC4=O)c32)nc1", "note": "[TP-020n]", "values": [{"measurement": "% of control", "setting": "[2]", "value": 100, "unit": "%"}]}
{"smiles": "O=C(NOC[C@H](O)CO)c1ccc(F)c(F)c1Nc1ccc(I)cc1F", "values": [{"measurement": "% of control", "setting": "[3]", "value": 100, "unit": "%"}]}
{"smiles": "CC(=O)c1cc(-c2ccccc2OCC2CC2)c2ncccn12", "values": [{"measurement": "% of control", "setting": "Vasopressin V2 receptor", "value": 109, "unit": "%"}]}
{"smiles": "Cc1ccc(-c2ccc3c(ccc4sc5c(c43)NC[C@@H](C)NC5=O)n2)cn1", "values": [{"measurement": "% of inhibition", "setting": "[4]", "value": 88, "unit": "%"}]}
{"smiles": "CNC(=O)Nc1ccc(-c2nc(N3CC4CCC(C3)O4)c3cnn(C4CCC5(CC4)OCCO5)c3n2)cc1", "values": [{"measurement": "% of control", "setting": "[5]", "value": 100, "unit": "%"}]}
{"smiles": "CC[C@@H]1[C@H](F)C(=O)N[C@@H]1COc1nccc2cc(C(N)=O)c(OC)cc12", "note": "[ZIMLOVISERTIB]", "values": [{"measurement": "% of inhibition", "setting": "[6]", "value": 12.5, "unit": "%"}]}
{"smiles": "CCC(=O)N1CCN(c2ccc(-n3c(=O)ccc4cnc5ccc(-c6cnc7ccccc7c6)cc5c43)cc2C(F)(F)F)CC1", "values": [{"measurement": "% of control", "setting": "[7]", "value": 35, "unit": "%"}]}
